Test results taken from patent US12780800B1, “Triazole-pyridinyl substituted azacyclohexyl acetic acid compounds as LPA receptor antagonists” (Viva Star Biosciences Limited, priority 2021, dated 2022).

Target: T1, LPA1 (Homo sapiens, UniProt Q92633)
T1 construct: ProLink (PK) beta-galactosidase enzyme-fragment tag; host or cells: CHO-K1
Test: LPA1 calcium flux assay (LPA1 functional antagonist assay)
Format: cell-based
Conditions: PathHunter CHO-K1 EDG2 β-Arrestin cell line; calcium indicator dye; stimulated with EC80 concentration of LPA; FLIPR Tetra
In short: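 The LPA1 antagonist readout was intracellular calcium flux, and IC50 values were calculated from it. Plates stood 30 min at RT after compound addition. Cells, grown overnight, had first taken up calcium dye over 45 min at 37 °C.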

T1 sequence (Q92633 whole entry, the tested form may be a part): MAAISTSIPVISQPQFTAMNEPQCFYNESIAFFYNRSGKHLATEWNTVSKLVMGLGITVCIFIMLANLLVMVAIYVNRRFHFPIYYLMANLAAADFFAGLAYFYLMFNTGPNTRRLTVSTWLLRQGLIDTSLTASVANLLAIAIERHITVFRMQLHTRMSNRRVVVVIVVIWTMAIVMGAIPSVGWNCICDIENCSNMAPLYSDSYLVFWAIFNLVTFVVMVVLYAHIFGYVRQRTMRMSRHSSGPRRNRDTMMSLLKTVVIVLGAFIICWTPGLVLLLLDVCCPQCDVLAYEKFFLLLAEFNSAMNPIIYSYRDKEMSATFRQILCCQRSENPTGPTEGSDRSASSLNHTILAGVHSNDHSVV

SMILES | IC50 [nM]
CCc1nc(-c2nnn(C)c2COc2cn(CC(C)C)nn2)ccc1N1C[C@@H](CC(=O)O)CC(F)(F)C1 [Example 128, (S)-2-(1-(2-ethyl-6-(5-(((1-isobutyl-1H-1,2,3-triazol-4-yl)oxy)methyl)-1-methyl-1H-1,2,3-triazol-4-yl)pyridin-3-yl)-5,5-difluoropiperidin-3-yl)acetic acid] | 100 to 500
CCc1nc(-c2cnn(C)c2Cn2nncc2CC2CC2)ncc1N1C[C@@H](CC(=O)O)CC(F)(F)C1 [Example 134, (S)-2-(1-(2-(5-((5-(cyclopropylmethyl)-1H-1,2,3-triazol-1-yl)methyl)-1-methyl-1H-pyrazol-4-yl)-4-ethylpyrimidin-5-yl)-5,5-difluoropiperidin-3-yl)acetic acid] | 100 to 500
CCc1nc(-c2cnn(C)c2Cn2cc(CC3CC3)nn2)ncc1N1C[C@@H](CC(=O)O)CC(F)(F)C1 [Example 135, (S)-2-(1-(2-(5-((4-(cyclopropylmethyl)-1H-1,2,3-triazol-1-yl)methyl)-1-methyl-1H-pyrazol-4-yl)-4-ethylpyrimidin-5-yl)-5,5-difluoropiperidin-3-yl)acetic acid] | > 5000
CCCN(C)C(=O)OCc1c(-c2ccc(N3C[C@@H](CC(=O)O)CC(F)(F)C3)c(C)n2)nnn1C [Example 139, (S)-2-(5,5-difluoro-1-(2-methyl-6-(1-methyl-5-(((methyl(propyl)carbamoyl)oxy)methyl)-1H-1,2,3-triazol-4-yl)pyridin-3-yl)piperidin-3-yl)acetic acid] | 100 to 500
Cc1nc(-c2nnn(C)c2COC(=O)N(C)CC2CC2)ccc1N1C[C@@H](CC(=O)O)CC(F)(F)C1 [Example 140, (S)-2-(1-(6-(5-((((cyclopropylmethyl)(methyl)carbamoyl)oxy)methyl)-1-methyl-1H-1,2,3-triazol-4-yl)-2-methylpyridin-3-yl)-5,5-difluoropiperidin-3-yl)acetic acid] | 100 to 500
Cc1nc(-c2nnn(C)c2COC(=O)N(C)C2CCC2)ccc1N1C[C@@H](CC(=O)O)CC(F)(F)C1 [Example 142, (S)-2-(1-(6-(5-(((cyclobutyl(methyl)carbamoyl)oxy)methyl)-1-methyl-1H-1,2,3-triazol-4-yl)-2-methylpyridin-3-yl)-5,5-difluoropiperidin-3-yl)acetic acid] | 100 to 500
CCc1nc(-c2nnn(C)c2COC(=O)N(C)C2CCC2)ccc1N1C[C@@H](CC(=O)O)CC(F)(F)C1 [Example 143, (S)-2-(1-(6-(5-(((cyclobutyl(methyl)carbamoyl)oxy)methyl)-1-methyl-1H-1,2,3-triazol-4-yl)-2-ethylpyridin-3-yl)-5,5-difluoropiperidin-3-yl)acetic acid] | < 100
CCCN(C)C(=O)OCc1c(-c2ccc(N3CCC[C@H](CC(=O)O)C3)c(C)n2)nnn1C [Example 144, (R)-2-(1-(2-methyl-6-(1-methyl-5-(((methyl(propyl)carbamoyl)oxy)methyl)-1H-1,2,3-triazol-4-yl)pyridin-3-yl)piperidin-3-yl)acetic acid] | 500 to 5000
CCCN(C)C(=O)OCc1c(-c2ccc(N3CCC[C@H](CC(=O)O)C3)c(CC)n2)nnn1C [Example 145, (R)-2-(1-(2-ethyl-6-(1-methyl-5-(((methyl(propyl)carbamoyl)oxy)methyl)-1H-1,2,3-triazol-4-yl)pyridin-3-yl)piperidin-3-yl)acetic acid] | 500 to 5000
CCCN(C)C(=O)OCc1c(-c2ccc(N3C[C@@H](CC(=O)O)CC(F)(F)C3)c(CC)n2)nnn1C [Example 146, (S)-2-(1-(2-ethyl-6-(1-methyl-5-(((methyl(propyl)carbamoyl)oxy)methyl)-1H-1,2,3-triazol-4-yl)pyridin-3-yl)-5,5-difluoropiperidin-3-yl)acetic acid] | > 5000
CCc1nc(-c2nnn(C)c2CNc2nccc(C3CC3)n2)ccc1CN1CC(C(=O)O)CC(F)(F)C1 (stereo not drawn) [Example 151, 1-((6-(5-(((4-cyclopropylpyrimidin-2-yl)amino)methyl)-1-methyl-1H-1,2,3-triazol-4-yl)-2-ethylpyridin-3-yl)methyl)-5,5-difluoropiperidine-3-carboxylic acid] | 500 to 5000
CCCN(C)C(=O)OCc1c(-c2ccc(CN3CCOC(C(=O)O)C3)c(C)n2)nnn1C (stereo not drawn) [Example 166, 4-((2-methyl-6-(1-methyl-5-(((methyl (propyl)carbamoyl)oxy)methyl)-1H-1,2,3-triazol-4-yl)pyridin-3-yl)methyl)morpholine-2-carboxylic acid] | > 5000
Cn1nnc(-c2ccc(N3CCC[C@H](CC(=O)O)C3)c(C(F)F)n2)c1Cn1nncc1CC1CC1 [Example 168, (R)-2-(1-(6-(5-((5-(cyclopropylmethyl)-1H-1,2,3-triazol-1-yl)methyl)-1-methyl-1H-1,2,3-triazol-4-yl)-2-(difluoromethyl)pyridin-3-yl)piperidin-3-yl)acetic acid] | < 100
Cn1nnc(-c2ccc(N3CCC[C@H](CC(=O)O)C3)c(C(F)F)n2)c1Cn1cc(CC2CC2)nn1 [Example 169, (R)-2-(1-(6-(5-((4-(cyclopropylmethyl)-1H-1,2,3-triazol-1-yl)methyl)-1-methyl-1H-1,2,3-triazol-4-yl)-2-(difluoromethyl)pyridin-3-yl)piperidin-3-yl)acetic acid] | 100 to 500

Next, values leading:

IC50 [nM] | SMILES
< 100 | CCc1nc(-c2nnn(C)c2COc2nnn(CC3CC3)n2)ccc1N1C[C@@H](CC(=O)O)CC(F)(F)C1 [Example 125, (S)-2-(1-(6-(5-(((2-(cyclopropylmethyl)-2H-tetrazol-5-yl)oxy)methyl)-1-methyl-1H-1,2,3-triazol-4-yl)-2-ethylpyridin-3-yl)-5,5-difluoropiperidin-3-yl)acetic acid]
100 to 500 | CCc1nc(-c2nnn(C)c2COc2cn(CC3CC3)nn2)ccc1N1C[C@@H](CC(=O)O)CC(F)(F)C1 [Example 126, (S)-2-(1-(6-(5-(((1-(cyclopropylmethyl)-1H-1,2,3-triazol-4-yl)oxy)methyl)-1-methyl-1H-1,2,3-triazol-4-yl)-2-ethylpyridin-3-yl)-5,5-difluoropiperidin-3-yl)acetic acid]
100 to 500 | CCc1nc(-c2nnn(C)c2COc2cnn(CC3CC3)n2)ccc1N1C[C@@H](CC(=O)O)CC(F)(F)C1 [Example 127]
< 100 | CCc1nc(-c2nnn(C)c2COc2cnn(CC(C)C)n2)ccc1N1C[C@@H](CC(=O)O)CC(F)(F)C1 [Example 129, (S)-2-(1-(2-ethyl-6-(5-(((2-isobutyl-2H-1,2,3-triazol-4-yl)oxy)methyl)-1-methyl-1H-1,2,3-triazol-4-yl)pyridin-3-yl)-5,5-difluoropiperidin-3-yl)acetic acid]
< 100 | CCc1nc(-c2nnn(C)c2Cn2ncc(CC3CC3)n2)ccc1N1C[C@@H](CC(=O)O)CC(F)(F)C1 [Example 130, (S)-2-(1-(6-(5-((4-(cyclopropylmethyl)-2H-1,2,3-triazol-2-yl)methyl)-1-methyl-1H-1,2,3-triazol-4-yl)-2-ethylpyridin-3-yl)-5,5-difluoropiperidin-3-yl)acetic acid]
100 to 500 | CCc1nc(-c2nnn(C)c2Cn2cc(CC3CC3)nn2)ccc1N1C[C@@H](CC(=O)O)CC(F)(F)C1 [Example 131, (S)-2-(1-(6-(5-((4-(cyclopropylmethyl)-1H-1,2,3-triazol-1-yl)methyl)-1-methyl-1H-1,2,3-triazol-4-yl)-2-ethylpyridin-3-yl)-5,5-difluoropiperidin-3-yl)acetic acid]
< 100 | CCc1nc(-c2nnn(C)c2Cn2nncc2CC2CC2)ccc1N1C[C@@H](CC(=O)O)CC(F)(F)C1 [Example 132, (S)-2-(1-(6-(5-((5-(cyclopropylmethyl)-1H-1,2,3-triazol-1-yl)methyl)-1-methyl-1H-1,2,3-triazol-4-yl)-2-ethylpyridin-3-yl)-5,5-difluoropiperidin-3-yl)acetic acid]
100 to 500 | Cc1nc(-c2nnn(C)c2Cn2cc(CC3CC3)nn2)ccc1N1C[C@@H](CC(=O)O)CC(F)(F)C1 [Example 133, (S)-2-(1-(6-(5-((4-(cyclopropylmethyl)-1H-1,2,3-triazol-1-yl)methyl)-1-methyl-1H-1,2,3-triazol-4-yl)-2-methylpyridin-3-yl)-5,5-difluoropiperidin-3-yl)acetic acid]
100 to 500 | CCc1nc(-c2cnn(C)c2Cn2ncc(CC3CC3)n2)ncc1N1C[C@@H](CC(=O)O)CC(F)(F)C1 [Example 136, (S)-2-(1-(2-(5-((4-(cyclopropylmethyl)-2H-1,2,3-triazol-2-yl)methyl)-1-methyl-1H-pyrazol-4-yl)-4-ethylpyrimidin-5-yl)-5,5-difluoropiperidin-3-yl)acetic acid]
100 to 500 | CCc1nc(-c2nnn(C)c2Cn2nnc(CC3CC3)n2)ccc1N1C[C@@H](CC(=O)O)CC(F)(F)C1 [Example 137, 2-[(3S)-1-[6-(5-{[5-(cyclopropylmethyl)-2H-1,2,3,4-tetrazol-2-yl]methyl}-1-methyl-1H-1,2,3-triazol-4-yl)-2-ethylpyridin-3-yl]-5,5-difluoropiperidin-3-yl]acetic acid]
100 to 500 | CCc1nc(-c2nnn(C)c2Cn2nnnc2CC2CC2)ccc1N1C[C@@H](CC(=O)O)CC(F)(F)C1 [Example 138, 2-[(3S)-1-[6-(5-{[5-(cyclopropylmethyl)-1H-1,2,3,4-tetrazol-1-yl]methyl}-1-methyl-1H-1,2,3-triazol-4-yl)-2-ethylpyridin-3-yl]-5,5-difluoropiperidin-3-yl]acetic acid]
100 to 500 | CCc1nc(-c2nnn(C)c2COC(=O)N(C)CC2CC2)ccc1N1C[C@@H](CC(=O)O)CC(F)(F)C1 [Example 141, (S)-2-(1-(6-(5-((((cyclopropylmethyl)(methyl)carbamoyl)oxy)methyl)-1-methyl-1H-1,2,3-triazol-4-yl)-2-ethylpyridin-3-yl)-5,5-difluoropiperidin-3-yl)acetic acid]
< 100 | Cn1nnc(-c2ccc(N3CCC[C@H](CC(=O)O)C3)c(C(F)F)n2)c1Cn1ncc(CC2CC2)n1 [Example 167, (R)-2-(1-(6-(5-((4-(cyclopropylmethyl)-2H-1,2,3-triazol-2-yl)methyl)-1-methyl-1H-1,2,3-triazol-4-yl)-2-(difluoromethyl)pyridin-3-yl)piperidin-3-yl)acetic acid]
